Among the data in patent US11866430B2, “Naphthyridinone compounds useful as T cell activators” (priority 2018, dated 2024) are IC50 values, retold here.

This experiment has as its system naïve human CD8 T cells. The experiment is described as follows: Human CD8 T cells pERK Assay. The class given is cell-based. Conditions: T-cell, read-out: HuCD8 pERK IC50. The method, then:
Frozen naïve human CD8 T cells were thawed in AIM-V media, incubated for 2 h in 37° C., and counted. The CD8 positive T cells were added to 384-well tissue culture plate at 20,000 cells per well in AIM-V media. One compound was added to each well, then bead bound anti-human CD3 and anti-CD28 mAb were added at final concentration of 0.3 μg/mL. The cells were incubated at 37° C. for 10 minutes. The reaction was stopped by adding lysis buffer from the AlphaLISA Surefire kit. (Perkin Elmer, cat #ALSU-PERK-A). Lysate (5 μL per well) was transferred into a new 384-well white assay plate for pERK activation measurement.

In the case of `COc1cc(F)ccc1C(c1ccc(F)cc1)N1CCN(c2c([N+](=O)[O-])c(=O)n(C)c3ccc(C#N)nc23)CC1` (single isomer, unassigned) [Example 124, 8-(4-((4-fluoro-2-methoxyphenyl)(4-fluorophenyl)methyl)piperazin-1-yl)-5-methyl-7-nitro-6-oxo-5,6-dihydro-1,5-naphthyridine-2-carbonitrile], the IC50 (usually the midpoint of a concentration-inhibition curve) turned out to be 360 nM.
For `C#CCn1c(=O)c([N+](=O)[O-])c(N2CCN(C(c3ccc(F)cc3)C3CC3)CC2)c2nc(C#N)ccc21` (single isomer, unassigned) [Example 143, 8-(4-(cyclopropyl(4-fluorophenyl)methyl)piperazin-1-yl)-7-nitro-6-oxo-5-(prop-2-yn-1-yl)-5,6-dihydro-1,5-naphthyridine-2-carbonitrile], the IC50 stood at 60 nM.
